According to PubChem BioAssay (NCI):
Values joined by “and” are separate entries in the source; they are usually repeats but may differ in a detail not shown here. Identical values can stand only once.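 Briefly, cells in 96-well plates were exposed to five compound concentrations for 48 h, and endpoints were estimated by linear interpolation. GI50 = concentration required for 50% inhibition of growth. Definition used: TGI = concentration required for complete inhibition of growth.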

Experiments:
Assay in all cases: NCI tumour cell line growth inhibition, 48 h
MDA-MB-435 = system: MDA-MB-435
HCC-2998 colon = system: HCC-2998 colon
BT-549 breast = system: BT-549 breast
DU-145 prostate = system: DU-145 prostate
MDA-MB-231 breast = system: MDA-MB-231 breast
SK-MEL-28 melanoma = system: SK-MEL-28 melanoma

Row | SMILES | GI50 (MDA-MB-435) | TGI (MDA-MB-435) | GI50 (HCC-2998 colon) | TGI (HCC-2998 colon) | GI50 (BT-549 breast) | TGI (BT-549 breast) [µM] | GI50 (DU-145 prostate) | TGI (DU-145 prostate) | GI50 (MDA-MB-231 breast) | TGI (MDA-MB-231 breast) | GI50 (SK-MEL-28 melanoma) | TGI (SK-MEL-28 melanoma)
1 | C=CCSc1n[nH]c(-c2cccs2)n1 | > 100 µM | > 100 µM | > 100 µM | > 100 µM | > 100 µM | > 100 | > 100 µM | > 100 µM | > 100 µM | > 100 µM | > 100 µM | > 100 µM
2 | CC1=COC2=C(C)C(=O)C(=O)c3c(C)ccc1c32 | – | 3.86 µM | – | 19.6 µM | – | 38.3 | – | 20.3 µM | – | 23.6 µM | – | > 100 µM
3 | N#Cc1c(NC(=O)CCC(=O)O)ccc2ccccc12 | – | > 100 µM | – | – | – | > 100 | – | > 100 µM | – | > 100 µM | – | > 100 µM
4 | CSC(=S)NN=C1CCCCC1 | – | > 100 µM | – | – | – | > 100 | – | > 100 µM | – | > 100 µM | – | > 100 µM
5 | COc1ccc(/C=N/NC(=O)O)cc1 | – | > 100 µM | – | > 100 µM | – | > 100 | – | > 100 µM | – | > 100 µM | – | > 100 µM
6 | Nc1cc(C(F)F)c(-c2nc(N3[C@@H]4CC[C@H]3COC4)nc(N3[C@@H]4CC[C@H]3COC4)n2)cn1 | 0.378 µM | > 30.6 µM | 0.636 µM | > 100 µM | 0.179 µM | 2.77 | 0.426 µM | > 100 µM | 0.406 µM | > 93.3 µM | 0.203 µM | 2.92 µM
7 | COc1ccc2[nH]cc(/C=C3\C(=O)Nc4ccccc43)c2c1 | 2.39 µM | 5.97 µM | – | – | 2.9 µM | 21.4 | 5.2 µM | 22.3 µM | 3.95 µM | 21.9 µM | 10.5 µM | 42 µM
8 | CCOC(=O)C(=Cc1ccc(Br)cc1)C(=O)OCC | 2.16 µM | 6.91 µM | 1.91 µM | 3.48 µM | 1.49 µM | 3.11 | 1.68 µM | 3.07 µM | 2.08 µM | 5.37 µM | 1.89 µM | 3.62 µM
9 | NC(C(=O)O)C(N)C(=O)O (centres undefined) | – | – | – | – | – | > 100 | – | > 100 µM | – | > 100 µM | – | > 100 µM
10 | O=[N+]([O-])c1ccc2nc(N/N=C/c3ccc(O)cc3)sc2c1 | 3.61 µM | 91.9 µM | 7.08 µM | > 100 µM | 12.3 µM | > 100 | 3.96 µM | 38.1 µM | 6.06 µM | > 100 µM | 9.43 µM | 57.2 µM
11 | CS(=O)(=O)c1ccc(C(F)(F)F)cc1NC(=O)Nc1cnc(Oc2ccc(-c3cc(Cl)cnc3N)cc2)nc1 | 2.23 µM | 5.79 µM | 2.79 µM | 8.72 µM | 2.26 µM | 6.5 | 3.21 µM | > 54.2 µM | 1.72 µM | 3.79 µM | 2.21 µM | 5.62 µM
12 | O=[N+]([O-])c1ccc(N(CCO)CCO)c2c1no[n+]2[O-] | 1.51 µM | 4.87 µM | 1.26 µM | 3.46 µM | 1.18 µM | 4 | 1.68 µM | 5.64 µM | 2.29 µM | 14.3 µM | 1.98 µM | 5.66 µM
13 | CN(C)CCCC1(c2ccc(F)cc2)OCc2cc(-c3ccc4cc[nH]c4c3)ccc21 (centres undefined) | 1.73 µM | 3.23 µM | 1.84 µM | 3.48 µM | 2.35 µM | 7.62 | 1.9 µM | 3.46 µM | 1.65 µM | 3.22 µM | 1.8 µM | 3.36 µM
14 | N#Cc1ccc(-n2cnc(NC(=O)[C@H]3CCN(C#N)C3)c2)cc1 | 0.234 µM | 18.4 µM | 2.28 µM | 18.6 µM | 0.248 µM | 2.47 | 1.52 µM | 49.4 µM | 1.91 µM | > 91.6 µM | 2.64 µM | > 100 µM
15 | CCOC(=O)c1cc(C(=O)c2cc(OC)cc(OC)c2)n2ncccc12 | – | – | 14.7 µM | > 100 µM | 1.22 µM | > 100 | 3.96 µM | > 100 µM | 8.18 µM | > 100 µM | 7.36 µM | > 100 µM
16 | O=C(NCCNCCO)c1ccc2oc3cc4ccccc4c(=O)n3c2c1 | 10.3 µM | 24.2 µM | – | – | 12.3 µM | 24.1 | – | – | 8.12 µM | 19.9 µM | 22.8 µM | > 50 µM

Row | SMILES | GI50 (MDA-MB-435) | TGI (MDA-MB-435) | GI50 (HCC-2998 colon) | TGI (HCC-2998 colon) | GI50 (BT-549 breast) | TGI (BT-549 breast) [µM] | GI50 (DU-145 prostate) | TGI (DU-145 prostate) | GI50 (MDA-MB-231 breast) | TGI (MDA-MB-231 breast) | GI50 (SK-MEL-28 melanoma) | TGI (SK-MEL-28 melanoma)
17 | NC(=O)c1c(OCc2c(F)cc(Br)cc2F)nsc1NC(=O)NCCCCN1CCCC1 | 2.26 µM | 6.75 µM | 5.26 µM | > 10 µM | 6.64 µM | > 10 | 4.59 µM | > 10 µM | 1.55 µM | 5.02 µM | 1.71 µM | 3.35 µM
18 | COc1ccc(OC)c(-c2nc3sccn3c2/C=C2/C(=O)Nc3ccccc32)c1 | 0.111 µM | 0.293 µM | – | – | 0.335 µM | 3.13 | 2.1 µM | 26.5 µM | 2.11 µM | 25.3 µM | 1.96 µM | 25.2 µM
19 | O=c1cccc(C#CCCCCOC2CCCO2)o1 (centres undefined) | 16.1 µM | 44.8 µM | – | – | 3.35 µM | 26.4 | 10.3 µM | > 80 µM | 15.4 µM | 51.5 µM | 23.9 µM | > 56.8 µM
20 | Clc1ccc2c(NCCCN3CCN(c4nc(-n5ccnc5)nc5ccccc45)CC3)ccnc2c1 | 1.74 µM | 3.2 µM | > 100 µM | > 100 µM | – | – | > 100 µM | > 100 µM | – | – | 1.8 µM | 3.34 µM
21 | O=S(=O)(Nc1ccc(Cl)c(C(F)(F)F)c1)c1ccc(-c2cnc(C3CC3)o2)cc1 | 0.0658 µM | 0.606 µM | 1.09 µM | 3.31 µM | 0.128 µM | 4.79 | 1.28 µM | 10.6 µM | 1.23 µM | 3.64 µM | 1.17 µM | 5.79 µM
22 | O=C(c1cccs1)c1c(C(F)(F)F)n([O-])c2cc(F)c(F)cc2[n+]1=O | 2.62 µM | 5.28 µM | 6.65 µM | 9.07 µM | 1.91 µM | 3.24 | 1.9 µM | 4.86 µM | 1 µM | 3.32 µM | 1.91 µM | 3.7 µM
23 | NC(N)=NC(N)=NCCc1ccccc1 | > 100 µM | > 100 µM | > 100 µM | > 100 µM | > 100 µM and 32.8 µM | > 100 | > 100 µM | > 100 µM | > 100 µM | > 100 µM | > 100 µM | > 100 µM
24 | NC1=C(c2nc(-c3cc4ccccc4oc3=O)cs2)C(c2ccco2)c2c(c3ccccc3oc2=O)O1 (centres undefined) | > 150 µg/mL | > 150 µg/mL | > 150 µg/mL | > 150 µg/mL | – | – | > 150 µg/mL | > 150 µg/mL | 75.7 µg/mL | > 150 µg/mL | > 150 µg/mL | > 150 µg/mL
25 | O=C1/C(=C\c2ccccc2)c2ccccc2N1Cc1ccccc1 | – | 16.5 µM | – | 16.4 µM | – | 14.2 | – | 17 µM | – | 13.3 µM | – | 15.7 µM
26 | C/C=C(/C)C(=O)OC1C=C(CO)C(=O)C(OC(=O)/C(C)=C\C)C1C(C)C (centres undefined) | 0.95 µM | 2.33 µM | 1.71 µM | 3.27 µM | 1.45 µM | 2.88 | 0.618 µM | 1.95 µM | 0.751 µM | 1.9 µM | 1.39 µM | 2.8 µM
27 | CCOC(=O)c1c(C)c2c(n1C)CSc1cc(S(=O)(=O)c3ccccc3)c(=O)[nH]c1-2 | 30.8 µM | > 100 µM | 35.2 µM | > 100 µM | 21.1 µM | > 100 | 23.1 µM | > 100 µM | 24.5 µM | > 100 µM | 37.2 µM | > 100 µM
28 | C[C@]12CC[C@@H]3c4ccc(O)cc4CC[C@H]3[C@@H]1CC[C@@H]2NS(=O)(=O)c1cccc(Br)c1 | 2.69 µM | 9.21 µM | 4.31 µM | 15.9 µM | 3.05 µM | 10.3 | 5.22 µM | 17 µM | 3.88 µM | 13.9 µM | 4.21 µM | 15.9 µM
29 | CC(=O)N1c2ccccc2C23CCN4CC5=CCOC(O)C(C5CC42)C13 (centres undefined) | – | > 100 µM | – | > 100 µM | – | > 100 | – | > 100 µM | – | > 100 µM | – | > 100 µM
30 | COc1ccc2cc(C(=O)/C=C/c3ccc(OC)c(OC)c3)ccc2c1 | 5.59 µM | 43.4 µM | – | – | 21.1 µM | 68.7 | 15.5 µM | 80.1 µM | 4.75 µM | 42.8 µM | 33.7 µM | 98.9 µM
31 | N#Cc1cccc(Nc2nccc(-c3cnn4ncccc34)n2)c1 | 0.00628 µM | 0.0239 µM | 0.00695 µM | 0.0241 µM | 0.00559 µM | 0.017 | 0.00661 µM | 3.46 µM | – | – | 0.00408 µM | 0.0125 µM
32 | COCCOC(C)C(/C=N/NC(N)=S)=N/NC(N)=S (centres undefined) | > 100 µM | > 100 µM | > 100 µM | > 100 µM | > 100 µM | > 100 | > 100 µM | > 100 µM | – | – | > 100 µM | > 100 µM
